{
  "source": "patent US8987471B2",
  "about": "“Substituted dihydropyrazoles as sphingosine receptor modulators” (Allergan, Inc., priority 2013, dated 2015)",
  "target": "T1, human S1P1 receptor (Homo sapiens, UniProt P21453)",
  "T1 construct": "expressed in transfected cells; membranes used",
  "T1 sequence (P21453 whole entry)": "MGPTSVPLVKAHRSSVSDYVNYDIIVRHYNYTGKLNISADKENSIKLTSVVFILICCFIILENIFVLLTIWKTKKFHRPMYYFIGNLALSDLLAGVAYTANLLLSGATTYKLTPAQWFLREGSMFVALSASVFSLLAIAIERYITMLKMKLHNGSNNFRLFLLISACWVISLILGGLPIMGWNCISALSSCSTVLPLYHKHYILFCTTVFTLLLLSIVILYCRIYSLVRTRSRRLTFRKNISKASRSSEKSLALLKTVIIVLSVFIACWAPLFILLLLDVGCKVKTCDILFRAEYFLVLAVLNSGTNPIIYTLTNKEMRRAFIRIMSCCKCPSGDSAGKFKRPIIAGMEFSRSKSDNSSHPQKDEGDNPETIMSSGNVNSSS",
  "assay": "GTP γ35S binding assay for S1P1 activity",
  "assay_type": "biochemical",
  "conditions": "membranes of cells stably expressing the S1P1 receptor, test concentrations 0.08 to 5,000 nM",
  "experimental": "Compounds of the invention were tested for S1P1 activity using the GTP γ^35S binding assay. These compounds may be assessed for their ability to activate or block activation of the human S1P1 receptor in cells stably expressing the S1P1 receptor.\nGTP γ^355 binding was measured in the medium containing (mM) HEPES 25, pH 7.4, MgCl2 10, NaCl 100, dithiothreitol 0.5, digitonin 0.003%, 0.2 nM GTP γ^355, and 5 μg membrane protein in a volume of 150 μl. Test compounds were included in the concentration range from 0.08 to 5,000 nM unless indicated otherwise. Membranes were incubated with 100 μM 5′adenylylimidodiphosphate for 30 min, and subsequently with 10 μM GDP for 10 min on ice. Drug solutions and membrane were mixed, and then reactions were initiated by adding GTP γ^355 and continued for 30 min at 25° C. Reaction mixtures were filtered over Whatman GF/B filters under vacuum, and washed three times with 3 mL of ice-cold buffer (HEPES 25, pH 7.4, MgCl2 10 and NaCl 100). Filters were dried and mixed with scintillant, and counted for ^35S activity using a β-counter. Agonist-induced GTP γ^35S binding was obtained by subtracting that in the absence of agonist. Binding data were analyzed using a non-linear regression method. In case of antagonist assay, the reaction mixture contained 10 nM S1P in the presence of test antagonist at concentrations ranging from 0.08 to 5000 nM.",
  "data": [
    {"smiles": "CCCN1N=C(COc2ccc(CNCCCP(=O)(O)O)cc2C)CC1c1ccccc1", "note": "(stereo not shown) [Compound 1, [3-({3-Methyl-4-[(5-phenyl-1-propyl-4,5-dihydro-1H-pyrazol-3-yl)methoxy]benzyl}amino)propyl]phosphonic acid]", "values": [
      {"measurement": "EC50", "value": 57, "unit": "nM"}
    ]}
  ]
}
